# US20230278972A1, “SUBSTITUTED HALOALKYL SULFONANILIDE HERBICIDES” (FMC Corporation, priority 2020, published 2023)
# How the values were obtained:
# Format in all cases: in vivo
# kochia (Bassia scoparia) [1] = experiment: Test A postemergence, kochia; conditions: Postemergence, 0 to 100 scale (0 no effect, 100 complete control); for Plant response rating, Kochia: 125 g ai/ha; for Kochia plant response rating: 500 g ai/ha, visual injury vs untreated controls after approx. 10 days
# Excerpt: (§1) Seeds of plant species selected from barnyardgrass (Echinochloa crus-galli), kochia (Bassia scoparia), ragweed (common ragweed, Ambrosia artemisiifolia), Ryegrass, Italian (Italian ryegrass, Lolium multiflorum), Foxtail, Giant (giant foxtail, Setaria faberi), and pigweed (Amaranthus retroflexus) were planted into a blend of loam soil and sand and treated preemergence with a directed soil spray using test chemicals formulated in a non-phytotoxic solvent mixture which included a surfactant. At the same time, plants selected from these weed species and also wheat (Triticum aestivum), corn (Zea mays), blackgrass (Alopecurus myosuroides), and galium (catchweed bedstraw, Galium aparine) were planted in pots containing the same blend of loam soil and sand and treated with postemergence applications of test chemicals formulated in the same manner. Plants ranged in height from 2 to 10 cm and were in the one- to two-leaf stage for the postemergence treatment. […] A dash (-) response means no test result.
# [2] = test system: barnyardgrass (Echinochloa crus-galli); experiment: Test A postemergence, barnyardgrass; conditions: Postemergence, 0 to 100 scale (0 no effect, 100 complete control); for Plant response rating, Barnyardgrass: 125 g ai/ha; for Barnyardgrass plant response rating: 500 g ai/ha, visual injury vs untreated controls after approx. 10 days
# Excerpt: as §1
# [3] = test system: Ryegrass, Italian (Italian ryegrass, Lolium multiflorum); experiment: Test A postemergence, Ryegrass, Italian; conditions: Postemergence, 0 to 100 scale (0 no effect, 100 complete control); for Plant response rating, Ryegrass, Italian: 125 g ai/ha; for Ryegrass, Italian plant response rating: 500 g ai/ha, visual injury vs untreated controls after approx. 10 days
# Excerpt: as §1
# [4] = test system: galium (catchweed bedstraw, Galium aparine); experiment: Test A postemergence, galium; conditions: Postemergence, 0 to 100 scale (0 no effect, 100 complete control); for Plant response rating, Galium: 125 g ai/ha; for Galium plant response rating: 500 g ai/ha, visual injury vs untreated controls after approx. 10 days
# Excerpt: as §1
# [5] = test system: ragweed (common ragweed, Ambrosia artemisiifolia); experiment: Test A postemergence, ragweed; conditions: Postemergence, 0 to 100 scale (0 no effect, 100 complete control); for Plant response rating, Ragweed: 125 g ai/ha; for Ragweed plant response rating: 500 g ai/ha, visual injury vs untreated controls after approx. 10 days
# Excerpt: as §1
# [6] = test system: ragweed (common ragweed, Ambrosia artemisiifolia); experiment: Test A preemergence, ragweed; conditions: Preemergence; for Ragweed plant response rating: 125 g ai/ha, visual injury on 0 to 100 scale (0 no effect, 100 complete control), approximately 10 days; for Plant response rating, Ragweed: 500 g ai/ha, 0 to 100 scale (0 no effect, 100 complete control)
# Excerpt: as §1
# [7] = test system: Foxtail, Giant (giant foxtail, Setaria faberi); experiment: Test A postemergence, Foxtail, Giant; conditions: Postemergence, 0 to 100 scale (0 no effect, 100 complete control); for Plant response rating, Foxtail, Giant: 125 g ai/ha; for Foxtail, Giant plant response rating: 500 g ai/ha, visual injury vs untreated controls after approx. 10 days
# Excerpt: as §1
# [8] = test system: wheat (Triticum aestivum); experiment: Test A postemergence, wheat; conditions: Postemergence, 0 to 100 scale (0 no effect, 100 complete control); for Plant response rating, Wheat: 125 g ai/ha; for Wheat plant response rating: 500 g ai/ha, visual injury vs untreated controls after approx. 10 days
# Excerpt: as §1
# [9] = test system: barnyardgrass (Echinochloa crus-galli); experiment: Test A preemergence, barnyardgrass; conditions: Preemergence; for Barnyardgrass plant response rating: 125 g ai/ha, visual injury on 0 to 100 scale (0 no effect, 100 complete control), approximately 10 days; for Plant response rating, Barnyardgrass: 500 g ai/ha, 0 to 100 scale (0 no effect, 100 complete control)
# Excerpt: as §1
# [10] = test system: pigweed (Amaranthus retroflexus); experiment: Test A postemergence, pigweed; conditions: Postemergence, 0 to 100 scale (0 no effect, 100 complete control); for Plant response rating, Pigweed: 125 g ai/ha; for Pigweed plant response rating: 500 g ai/ha, visual injury vs untreated controls after approx. 10 days
# Excerpt: as §1
# [11] = test system: Ryegrass, Italian (Italian ryegrass, Lolium multiflorum); experiment: Test A preemergence, Ryegrass, Italian; conditions: Preemergence; for Ryegrass, Italian plant response rating: 125 g ai/ha, visual injury on 0 to 100 scale (0 no effect, 100 complete control), approximately 10 days; for Plant response rating, Ryegrass, Italian: 500 g ai/ha, 0 to 100 scale (0 no effect, 100 complete control)
# Excerpt: as §1
# [12] = test system: blackgrass (Alopecurus myosuroides); experiment: Test A postemergence, blackgrass; conditions: Postemergence, 0 to 100 scale (0 no effect, 100 complete control); for Plant response rating, Blackgrass: 125 g ai/ha; for Blackgrass plant response rating: 500 g ai/ha, visual injury vs untreated controls after approx. 10 days
# Excerpt: as §1
# [13] = test system: Foxtail, Giant (giant foxtail, Setaria faberi); experiment: Test A preemergence, Foxtail, Giant; conditions: Preemergence; for Foxtail, Giant plant response rating: 125 g ai/ha, visual injury on 0 to 100 scale (0 no effect, 100 complete control), approximately 10 days; for Plant response rating, Foxtail, Giant: 500 g ai/ha, 0 to 100 scale (0 no effect, 100 complete control)
# Excerpt: as §1
# kochia (Bassia scoparia) [14] = experiment: Test A preemergence, kochia; conditions: Preemergence; for Kochia plant response rating: 125 g ai/ha, visual injury on 0 to 100 scale (0 no effect, 100 complete control), approximately 10 days; for Plant response rating, Kochia: 500 g ai/ha, 0 to 100 scale (0 no effect, 100 complete control)
# Excerpt: as §1
# corn (Zea mays) = experiment: Test A postemergence, corn; conditions: Postemergence, 0 to 100 scale (0 no effect, 100 complete control); for Plant response rating, Corn: 125 g ai/ha; for Corn plant response rating: 500 g ai/ha, visual injury vs untreated controls after approx. 10 days
# Excerpt: as §1
SMILES,Kochia plant response rating (kochia (Bassia scoparia) [1]),Barnyardgrass plant response rating [2],"Ryegrass, Italian plant response rating [3]",Galium plant response rating [4],Ragweed plant response rating [5],Ragweed plant response rating [6],"Plant response rating, Ragweed [6]","Foxtail, Giant plant response rating [7]",Wheat plant response rating [8],Barnyardgrass plant response rating [9],"Plant response rating, Barnyardgrass [9]",Pigweed plant response rating [10],"Ryegrass, Italian plant response rating [11]","Plant response rating, Ryegrass, Italian [11]",Blackgrass plant response rating [12],"Foxtail, Giant plant response rating [13]","Plant response rating, Foxtail, Giant [13]",Kochia plant response rating (kochia (Bassia scoparia) [14]),"Plant response rating, Kochia (kochia (Bassia scoparia) [14])",Corn plant response rating (corn (Zea mays)),further results
Cc1c(NS(=O)(=O)C(F)(F)F)cc(C(=O)N2CC(C)OC(C)C2)c(C)c1F (stereo not drawn) [Compound 116],70,90,80,90,90,10,100,80,80,30,90,80,40,90,40,60,90,90,100,80,"Plant response rating, Kochia (kochia (Bassia scoparia) [1]; visual injury approx. 10 days): 30; Plant response rating, Barnyardgrass ([2]; visual injury approx. 10 days): 50; Plant response rating, Ryegrass, Italian ([3]; visual injury approx. 10 days): 60; Plant response rating, Galium ([4]; visual injury approx. 10 days): 90; Plant response rating, Ragweed ([5]; visual injury approx. 10 days): 90; Plant response rating, Foxtail, Giant ([7]; visual injury approx. 10 days): 0; Plant response rating, Wheat ([8]; visual injury approx. 10 days): 60; Plant response rating, Pigweed ([10]; visual injury approx. 10 days): 60; Plant response rating, Blackgrass ([12]; visual injury approx. 10 days): 0; Plant response rating, Corn (corn (Zea mays); visual injury approx. 10 days): 0"
Cc1cc(C)c(C2=NOC(C(C)(C)C)C2)cc1NS(=O)(=O)C(F)(F)F (stereo not drawn) [Compound 108],80,90,70,90,80,20,60,30,70,70,100,60,90,100,50,80,100,80,90,50,"Plant response rating, Kochia (kochia (Bassia scoparia) [1]; visual injury approx. 10 days): 30; Plant response rating, Barnyardgrass ([2]; visual injury approx. 10 days): 20; Plant response rating, Ryegrass, Italian ([3]; visual injury approx. 10 days): 0; Plant response rating, Galium ([4]; visual injury approx. 10 days): 70; Plant response rating, Ragweed ([5]; visual injury approx. 10 days): 40; Plant response rating, Foxtail, Giant ([7]; visual injury approx. 10 days): 0; Plant response rating, Wheat ([8]; visual injury approx. 10 days): 30; Plant response rating, Pigweed ([10]; visual injury approx. 10 days): 0; Plant response rating, Blackgrass ([12]; visual injury approx. 10 days): 0; Plant response rating, Corn (corn (Zea mays); visual injury approx. 10 days): 0"
C#CCN(C)C(=O)c1cc(NS(=O)(=O)C(F)(F)F)c(C)c(F)c1C [Compound 179],70,90,80,90,90,90,90,90,60,90,90,90,100,100,40,80,100,90,90,80,"Plant response rating, Kochia (kochia (Bassia scoparia) [1]): 60; Plant response rating, Barnyardgrass [2]: 90; Plant response rating, Ryegrass, Italian [3]: 40; Plant response rating, Galium [4]: 90; Plant response rating, Ragweed [5]: 90; Plant response rating, Foxtail, Giant [7]: 70; Plant response rating, Wheat [8]: 0; Plant response rating, Pigweed [10]: 80; Plant response rating, Blackgrass [12]: 20; Plant response rating, Corn (corn (Zea mays)): 20"
Cc1cc(C)c(C2=NOC3CCCC23)cc1NS(=O)(=O)C(F)(F)F (stereo not drawn) [Compound 164],90,90,90,90,90,90,100,40,70,90,100,90,80,100,40,90,100,100,100,80,"Plant response rating, Kochia (kochia (Bassia scoparia) [1]): 60; Plant response rating, Barnyardgrass [2]: 80; Plant response rating, Ryegrass, Italian [3]: 80; Plant response rating, Galium [4]: 80; Plant response rating, Ragweed [5]: 70; Plant response rating, Foxtail, Giant [7]: 0; Plant response rating, Wheat [8]: 60; Plant response rating, Pigweed [10]: 70; Plant response rating, Blackgrass [12]: 0; Plant response rating, Corn (corn (Zea mays)): 0"
